# Measured values published in US20230128357A1, “Compound Combination with Superior Herbicidal Activity” (priority 2020, published 2023).
# How the values were obtained:
# Assay in all cases: Herbicidal action, field trial, post-emergence
# Type in all cases: in vivo
# Zea mays = tested on: Zea mays
# Description: (§1) The growth stages of the different weed or crop plant species are indicated according to the BBCH monograph “Growth stages of mono- and dicotyledonous plants”, 2nd edition, 2001, ed. Uwe Meier, Federal Biological Research Centre for Agriculture and Forestry (Biologische Bundesanstalt für Land und Forstwirtschaft). The respective BBCH stages are mentioned in brackets for the different weed or crop plant species and indicate the BBCH stage for the majority of the respective weed or crop plant species.
# (§2) The dose rates of herbicidal ingredients used in each case are indicated for the respective active ingredient in brackets and refer to the amount of active ingredient per hectare (g a.i./ha).
# (§3) EC=A+B+C−[((A·B)+(A·C)+(B·C)]100)+(A·B·C/10000)
# Setaria viridis = tested on: Setaria viridis
# Description: as §1, §2, §3
# Panicum maximum = tested on: Panicum maximum
# Description: as §1, §2, §3
# Chenopodium album = tested on: Chenopodium album
# Description: as §1, §2, §3
# Echinocloa crus-galli = tested on: Echinocloa crus-galli
# Description: as §1, §2, §3
# Polygonum convolvulus = tested on: Polygonum convolvulus
# Description: as §1, §2, §3
# Abutilon theophrasti = conditions: Table 2
# Description: as §1, §2
compound,measurement,setting,value
"Cc1ccc2c(c1)[C@H](Nc1nc(N)nc([C@@H](C)F)n1)[C@@H](C)C2 (mixture of isomers) [Indaziflam, N2-[(1R,2S)-2,3-dihydro-2,6-dimethyl-1H-inden-1-yl]-6-[(1RS)-1-fluoroethyl]-1,3,5-triazine-2,4-diamine]",Herbicidal Activity 13 DAT (EA),"Zea mays; 10 g a.i./ha, Table 13",0%
same,Herbicidal Activity 13 DAT (EA),"Zea mays; 25 g a.i./ha, Table 13",0%
same,Herbicidal Activity 13 DAT (EA),"Setaria viridis; 10 g a.i./ha, Table 10",0%
same,Herbicidal Activity 13 DAT (EA),"Setaria viridis; 25 g a.i./ha, Table 10",0%
same,Herbicidal Activity 13 DAT (EA),"Panicum maximum; 10 g a.i./ha, Table 12",0%
same,Herbicidal Activity 13 DAT (EA),"Panicum maximum; 25 g a.i./ha, Table 12",0%
same,Herbicidal Activity 13 DAT (EA),"Chenopodium album; 10 g a.i./ha, Table 9",0%
same,Herbicidal Activity 13 DAT (EA),"Chenopodium album; 25 g a.i./ha, Table 9",10%
same,Herbicidal Activity 13 DAT (EA),"Echinocloa crus-galli; 10 g a.i./ha, Table 11",0%
same,Herbicidal Activity 13 DAT (EA),"Echinocloa crus-galli; 25 g a.i./ha, Table 11",0%
same,Herbicidal Activity 13 DAT (EA),"Polygonum convolvulus; 10 g a.i./ha, Table 8",20%
same,Herbicidal Activity 13 DAT (EA),"Polygonum convolvulus; 25 g a.i./ha, Table 8",20%
"O=C(Nc1ccc(F)cc1F)c1cccnc1Oc1cccc(C(F)(F)F)c1 [Diflufenican, diflufenican]",Herbicidal Activity 13 DAT (EA),Abutilon theophrasti; 60 g a.i./ha,35%
same,Herbicidal Activity 13 DAT (EA),Abutilon theophrasti; 150 g a.i./ha,65%
same,Herbicidal Activity 13 DAT (EA),"Zea mays; 60 g a.i./ha, Table 7",13%
same,Herbicidal Activity 13 DAT (EA),"Zea mays; 90 g a.i./ha, Table 13",10%
same,Herbicidal Activity 13 DAT (EA),"Zea mays; 150 g a.i./ha, Table 7",25%
same,Herbicidal Activity 13 DAT (EA),"Zea mays; 150 g a.i./ha, Table 13",25%
same,Herbicidal Activity 13 DAT (EA),"Setaria viridis; 60 g a.i./ha, Table 4",0%
same,Herbicidal Activity 13 DAT (EA),"Setaria viridis; 90 g a.i./ha, Table 10",0%
same,Herbicidal Activity 13 DAT (EA),"Setaria viridis; 150 g a.i./ha, Table 4",0%
same,Herbicidal Activity 13 DAT (EA),"Setaria viridis; 150 g a.i./ha, Table 10",0%
same,Herbicidal Activity 13 DAT (EA),"Panicum maximum; 60 g a.i./ha, Table 6",10%
same,Herbicidal Activity 13 DAT (EA),"Panicum maximum; 90 g a.i./ha, Table 12",10%
same,Herbicidal Activity 13 DAT (EA),"Panicum maximum; 150 g a.i./ha, Table 6",10%
same,Herbicidal Activity 13 DAT (EA),"Panicum maximum; 150 g a.i./ha, Table 12",10%
same,Herbicidal Activity 13 DAT (EA),"Chenopodium album; 60 g a.i./ha, Table 3",10%
same,Herbicidal Activity 13 DAT (EA),"Chenopodium album; 90 g a.i./ha, Table 9",10%
same,Herbicidal Activity 13 DAT (EA),"Chenopodium album; 150 g a.i./ha, Table 3",10%
same,Herbicidal Activity 13 DAT (EA),"Chenopodium album; 150 g a.i./ha, Table 9",10%
same,Herbicidal Activity 13 DAT (EA),"Echinocloa crus-galli; 60 g a.i./ha, Table 5",0%
same,Herbicidal Activity 13 DAT (EA),"Echinocloa crus-galli; 90 g a.i./ha, Table 11",0%
same,Herbicidal Activity 13 DAT (EA),"Echinocloa crus-galli; 150 g a.i./ha, Table 5",0%
same,Herbicidal Activity 13 DAT (EA),"Echinocloa crus-galli; 150 g a.i./ha, Table 11",0%
same,Herbicidal Activity 13 DAT (EA),"Polygonum convolvulus; 60 g a.i./ha, Table 1",40%
same,Herbicidal Activity 13 DAT (EA),"Polygonum convolvulus; 90 g a.i./ha, Table 8",45%
same,Herbicidal Activity 13 DAT (EA),"Polygonum convolvulus; 150 g a.i./ha, Table 1",60%
same,Herbicidal Activity 13 DAT (EA),"Polygonum convolvulus; 150 g a.i./ha, Table 8",60%
CCCCCCCCC(=O)O [Pelargonic acid],Herbicidal Activity 13 DAT (EA),Abutilon theophrasti; 6000 g a.i./ha,40%
same,Herbicidal Activity 13 DAT (EA),Abutilon theophrasti; 16000 g a.i./ha,80%
same,Herbicidal Activity 13 DAT (EA),"Zea mays; 6000 g a.i./ha, Table 7",40%
same,Herbicidal Activity 13 DAT (EA),"Zea mays; 6000 g a.i./ha, Table 13",39%
same,Herbicidal Activity 13 DAT (EA),"Zea mays; 16000 g a.i./ha, Table 7",60%
same,Herbicidal Activity 13 DAT (EA),"Zea mays; 16000 g a.i./ha, Table 13",63%
same,Herbicidal Activity 13 DAT (EA),"Setaria viridis; 6000 g a.i./ha, Table 4",40%
same,Herbicidal Activity 13 DAT (EA),"Setaria viridis; 6000 g a.i./ha, Table 10",25%
same,Herbicidal Activity 13 DAT (EA),"Setaria viridis; 16000 g a.i./ha, Table 4",55%
same,Herbicidal Activity 13 DAT (EA),"Setaria viridis; 16000 g a.i./ha, Table 10",50%
same,Herbicidal Activity 13 DAT (EA),"Panicum maximum; 6000 g a.i./ha, Table 6",10%
same,Herbicidal Activity 13 DAT (EA),"Panicum maximum; 6000 g a.i./ha, Table 12",15%
same,Herbicidal Activity 13 DAT (EA),"Panicum maximum; 16000 g a.i./ha, Table 6",65%
same,Herbicidal Activity 13 DAT (EA),"Panicum maximum; 16000 g a.i./ha, Table 12",58%
same,Herbicidal Activity 13 DAT (EA),"Chenopodium album; 6000 g a.i./ha, Table 3",45%
same,Herbicidal Activity 13 DAT (EA),"Chenopodium album; 6000 g a.i./ha, Table 9",42.5%
same,Herbicidal Activity 13 DAT (EA),"Chenopodium album; 16000 g a.i./ha, Table 3",88%
same,Herbicidal Activity 13 DAT (EA),"Chenopodium album; 16000 g a.i./ha, Table 9",84%
same,Herbicidal Activity 13 DAT (EA),"Echinocloa crus-galli; 6000 g a.i./ha, Table 5",25%
same,Herbicidal Activity 13 DAT (EA),"Echinocloa crus-galli; 6000 g a.i./ha, Table 11",13%
same,Herbicidal Activity 13 DAT (EA),"Echinocloa crus-galli; 16000 g a.i./ha, Table 5",35%
same,Herbicidal Activity 13 DAT (EA),"Echinocloa crus-galli; 16000 g a.i./ha, Table 11",30%
same,Herbicidal Activity 13 DAT (EA),"Polygonum convolvulus; 6000 g a.i./ha, Table 1",10%
same,Herbicidal Activity 13 DAT (EA),"Polygonum convolvulus; 6000 g a.i./ha, Table 8",25%
same,Herbicidal Activity 13 DAT (EA),"Polygonum convolvulus; 16000 g a.i./ha, Table 1",89%
same,Herbicidal Activity 13 DAT (EA),"Polygonum convolvulus; 16000 g a.i./ha, Table 8",90%
